Measurements taken from US20050158271A1, “Pharmaceutical applications of hydrotropic polymer micelles” (priority 2000, published 2005).
In brackets after ≈: the same amount, converted by molar mass.

What was measured:
HT-29 = assay: Antitumor cytotoxicity (ED50), HT-29; assay type: cell-based; conditions: HT-29 tumor cell line
Description: (§1) The antitumor cytotoxicities, as measured by ED50, of polymeric micelles on various cell lines were measured as shown in Table 7. […] Free paclitaxel and doxorubicin in ethanol were used as positive controls. The ED50 values of hydrotropic micelles are much lower than PLA-PEG and PPA-PEG micelles.

MDA231 = assay: Antitumor cytotoxicity (ED50), MDA231; assay type: cell-based; conditions: MDA231 tumor cell line
Description: as §1

MCF-7 = assay: Antitumor cytotoxicity (ED50), MCF-7; assay type: cell-based; conditions: MCF-7 tumor cell line
Description: as §1

SKOV-3 = assay: Antitumor cytotoxicity (ED50), SKOV-3; assay type: cell-based; conditions: SKOV-3 tumor cell line
Description: as §1

[1] = Aqueous solubility of paclitaxel (intrinsic, clinical vehicle, hydrotropic agents)
Text: The molecular structures of these hydrotropic agents are shown below.

[2] = 50:50 mixture of Cremophore EL and dehydrated ethanol, diluted in isotonic saline; cited from earlier work

increase in aqueous solubility over the intrinsic solubility [1]	hydrotropic property for paclitaxel (ability to increase aqueous paclitaxel solubility) ([1]; hydrotrope screening, in words)	Structure (SMILES)	ED50 HT-29 (HT-29)	ED50 MDA231 (MDA231)	ED50 MCF-7 (MCF-7)	ED50 SKOV-3 (SKOV-3)	paclitaxel solubility in formulation [2]
		COc1cccc2c1C(=O)c1c(O)c3c(c(O)c1C2=O)C[C@@](O)(C(=O)CO)C[C@@H]3O[C@H]1C[C@H](N)[C@H](O)[C@H](C)O1 [Doxorubicin]	0.044 µg/mL (≈ 0.081 µM)	0.050 µg/mL (≈ 0.092 µM)	0.773 µg/mL (≈ 1.42 µM)	0.611 µg/mL (≈ 1.12 µM)	
5˜6 orders of magnitude		CC(=O)O[C@H]1C(=O)[C@@]2(C)[C@H]([C@H](OC(=O)c3ccccc3)[C@]3(O)C[C@H](OC(=O)[C@H](O)[C@@H](NC(=O)c4ccccc4)c4ccccc4)C(C)=C1C3(C)C)[C@]1(OC(C)=O)CO[C@@H]1C[C@@H]2O [Paclitaxel, paclitaxel]	0.003 µg/mL (≈ 0.00351 µM)	0.033 µg/mL (≈ 0.0386 µM)	0.043 µg/mL (≈ 0.0504 µM)	0.006 µg/mL (≈ 0.00703 µM)	≤ 1200 µg/mL
	excellent hydrotropes for paclitaxel	O=C([O-])c1ccccc1O.[Na+] [sodium salicylate, Sodium salicylate]					
